Test results as given in patent publication US20250304623A1, “PEPTIDES FOR INTRACELLULAR DELIVERY” (UNIVERSIDADE DE SANTIAGO DE COMPOSTELA, priority 2022, published 2025).
*: point of attachment. NHNH2 = NN*

How the values were obtained:
Format in all cases: cell-based
HCT116 cells = test: RLuc pDNA delivery, robotic library screening, HCT116
[1] = system: A549 cells expressing EGFP; test: EGFP-targeting siRNA delivery (GFP silencing vs siMOCK), A549; settings: for percentage of GFP-silencing relative to siMOCK: A549 cells; for siRNA % fluorescence reduction vs siMOCK: A549, amphiphile 5 μM, hydrophobic tail
Method: (§1) To generate an EGFP expressing HeLa cell line, HeLa cells were transfected with EGFP pDNA (pEGFP-C1, Clontech) and stable transfectants were selected with 400 μg/mL of G-418 (Millipore). Green clones were selected by epifluorescence microscopy and tested for EGFP expression stability through several passages. […] All other EGFP-expressing cell lines were obtained in a similar way from parent non-EGFP-expressing cell lines.
Cells expressing EGFP were seeded in a 96 well plate the day before the experiment at a concentration of 50,000 cell/mL (100 μL/w) in DMEM+10% FBS+1% Gln-Abt. For robotic library screening, the delivery of an EGFP-targeting siRNA (EGFP: enhanced green fluorescent protein, Ambion® Silencer® GFP Positive Control siRNA (siGFP) (AM4626)) in six different cell lines expressing EGFP was performed. […] The mixture was shaken for 30 min at room temperature (rt) before the addition to the cells. The cell medium was aspirated, and cells were washed twice with PBS. Finally, 50 μL of the solution of siRNA/amphiphile complexes were added to the cells and incubated for 4 h. After transfection, the medium was replaced by 100 μL of fresh DMEM supplemented with 10% FBS. The fluorescence knockdown was quantified after 72 h in a plate reader, by comparison with cells transfected with a non-targeting siRNA control (siMOCK, Silencer™ Negative Control No. 1 siRNA (siMOCK) (AM4611)). EGFP knockdown was compared with Lipofectamine® RNAiMAX silencing efficiency (30-60% depending on cell line, defined with a numeric value in the below tables). All experiments were done in triplicate.
Tables 1-7: RLuc (pDNA) or EGFP (mRNA) expression levels were normalized to Lipofectamine reagents (value=1) and expressed as fold-times signal increase. In the case of siRNA, the siRNA treated cells fluorescence was compared with siMOCK control fluorescence, while Cas9-RNP mediated knockout was measured against the fluorescence of untreated cells. In both siRNA and Cas9-RNP, values are expressed as % fluorescence reduction. Amphiphile concentration was 5 μM in all cases. All experiments were performed in triplicate.
Tables 20-25 show the mean (triplicates) percentage of GFP-silencing, accounted by fluorescence intensity decrease relative to a non-targeting siRNA (siMOCK) control, measured after the transfection of siRNA by different amphiphiles at different concentrations in a variety of cell lines. Background values, accounted by untreated control cells, were subtracted for processing.

[2] = system: ARPE19 cells expressing EGFP; test: Cas9-RNP delivery against EGFP (gene editing, plate reader), ARPE19
Method: as §1
Cells expressing EGFP were seeded in a 96 well plate the day before the experiment at a concentration of 50,000 cell/mL (100 μL/w) in DMEM+10% FBS+1% Gln-Abt. For robotic library screening, the delivery of Cas9-RNP against EGFP (RNP designed to knock-out the gene encoding for the enhanced green fluorescent protein (EGFP)) was performed. For RNP assembly, 9.2 μL of crRNA and 9.2 μL of tracrRNA were mixed in 211.6 μL of Nuclease-Free Duplex Buffer (IDT), incubated for 5 min at 95° C. and slowly cooled at rt (see I. Lostalé-Seijo, et al. Peptide/Cas9 nanostructures for ribonucleoprotein cell membrane transport and gene edition, Chem. Sci., 2017). Cas9 protein was dissolved in DMEM at a final concentration of 4 μM and equal volumes of the RNA complex and Cas9 were mixed and incubated for 5 min at rt. 75 μL of the corresponding amphiphile concentrations were added to 5 μL of RNP at 2 μM. The mixture was shaken for 30 min at room temperature before the addition to the cells. The cell medium was aspirated, and cells were washed twice with PBS. Cells were covered with 30 μL of DMEM and 20 μL of the RNP/amphiphile complexes were added to the cells (final peptide concentrations=2.5, 5 and 10 μM; final Cas9-RNP concentration=50 nM) and incubated for 4 h. After the incubation, the medium was replaced by 100 μL of fresh DMEM supplemented with 10% FBS. The total EGFP fluorescence was quantified after 72 h in a plate reader (FIG. 2, Table 1 (right) and Table 6). All experiments were done in triplicate. […]
Tables 26-31 show the mean (triplicates) percentage of gene editing, accounted by GFP fluorescence intensity decrease (% of reduction), measured after the transfection of Cas9-RNP by different amphiphiles at different concentrations in a variety of cell lines. Background values, accounted by untreated control cells, were subtracted for processing.

Substance	mean luminescent intensity (RLuc pDNA) (HCT116 cells; Dodecanal, 10 μM)	mean luminescent intensity (RLuc pDNA) (HCT116 cells; Dodecanal, 15 μM)	mean luminescent intensity (RLuc pDNA) (HCT116 cells; Myristoleyl, 5 μM)	mean luminescent intensity (RLuc pDNA) (HCT116 cells; Myristoleyl, 10 μM)	mean luminescent intensity (RLuc pDNA) (HCT116 cells; Myristoleyl, 15 μM)	percentage of GFP-silencing relative to siMOCK ([1]; Dodecanal, 5 μM)	percentage of GFP-silencing relative to siMOCK ([1]; Dodecanal, 10 μM)	percentage of GFP-silencing relative to siMOCK ([1]; Dodecanal, 15 μM)	percentage of GFP-silencing relative to siMOCK ([1]; Myristoleyl, 5 μM)	percentage of GFP-silencing relative to siMOCK ([1]; Myristoleyl, 10 μM)	percentage of GFP-silencing relative to siMOCK ([1]; Myristoleyl, 15 μM)	percentage of gene editing, GFP fluorescence intensity decrease (% of reduction) ([2]; Dodecanal, 5 μM)	percentage of gene editing, GFP fluorescence intensity decrease (% of reduction) ([2]; Myristoleyl, 15 μM)	mean luminescent intensity (RLuc pDNA) (HCT116 cells; Petroselinyl, 5 μM)	mean luminescent intensity (RLuc pDNA) (HCT116 cells; Petroselinyl, 10 μM)	mean luminescent intensity (RLuc pDNA) (HCT116 cells; Petroselinyl, 15 μM)	percentage of GFP-silencing relative to siMOCK ([1]; Oleyl, 10 μM)	percentage of GFP-silencing relative to siMOCK ([1]; Oleyl, 15 μM)	percentage of GFP-silencing relative to siMOCK ([1]; Palmitoleyl, 10 μM)	percentage of GFP-silencing relative to siMOCK ([1]; Palmitoleyl, 15 μM)	other results
Ac-RK*LRRK*L-NH2 (Ac-RK(NHNH2)LRRK(NHNH2)L-NH2; not fully specified; printed as Ac-RK*LRRK*L-NH2; also: K*2,K*6: native or modified lysine (ε-amide to a linker)) [Peptide 7.2]	729 RLU	684 RLU	−526 RLU	−505 RLU	−526 RLU	5%	11%	8%	8%	14%	16%	0%	−8%	–	–	–	–	–	–	–	mean luminescent intensity (RLuc pDNA) (HCT116 cells; Dodecanal, 5 μM): 911 RLU; percentage of gene editing, GFP fluorescence intensity decrease (% of reduction) ([2]; Dodecanal, 10 μM): 0%; percentage of gene editing, GFP fluorescence intensity decrease (% of reduction) ([2]; Myristoleyl, 5 μM): 3%
Ac-RK*LRRK*LRK*-NH2 (Ac-RK(NHNH2)LRRK(NHNH2)LRK(NHNH2)-NH2; not fully specified; printed as Ac-RK*LRRK*LRK*-NH2; also: K*2,K*6,K*9: native or modified lysine (ε-amide to a linker)) [Peptide 9.3]	1466 RLU	1854 RLU	16615 RLU	58572 RLU	19746 RLU	35%	35%	55%	34%	58%	23%	5%	−25%	30301 RLU	113431 RLU	76316 RLU	32%	28%	75%	64%	mean luminescent intensity (RLuc pDNA) (HCT116 cells; Oleyl, 15 μM): 1940 RLU; mean luminescent intensity (RLuc pDNA) (HCT116 cells; Palmitoleyl, 15 μM): 141026 RLU; siRNA % fluorescence reduction vs siMOCK ([1]; palmitoleyl hydrophobic tail): 75%; percentage of GFP-silencing relative to siMOCK ([1]; Palmitoleyl, 5 μM): 42%; percentage of GFP-silencing relative to siMOCK ([1]; Petroselinyl, 5 μM): 6%; percentage of GFP-silencing relative to siMOCK ([1]; Petroselinyl, 10 μM): 58%; percentage of GFP-silencing relative to siMOCK ([1]; Petroselinyl, 15 μM): 75%; percentage of gene editing, GFP fluorescence intensity decrease (% of reduction) ([2]; Dodecanal, 15 μM): −14%; percentage of gene editing, GFP fluorescence intensity decrease (% of reduction) ([2]; Oleyl, 10 μM): 23%; percentage of gene editing, GFP fluorescence intensity decrease (% of reduction) ([2]; Oleyl, 15 μM): 22%; percentage of gene editing, GFP fluorescence intensity decrease (% of reduction) ([2]; Palmitoleyl, 5 μM): 3%; percentage of gene editing, GFP fluorescence intensity decrease (% of reduction) ([2]; Palmitoleyl, 15 μM): 8%; percentage of gene editing, GFP fluorescence intensity decrease (% of reduction) ([2]; Petroselinyl, 15 μM): −2%
Ac-RK*LRRLLRK*-NH2 (Ac-RK(NHNH2)LRRLLRK(NHNH2)-NH2; not fully specified; printed as Ac-RK*LRRLLRK*-NH2; also: K*2,K*9: native or modified lysine (ε-amide to a linker)) [Peptide 9.2]	819 RLU	1099 RLU	−544 RLU	−623 RLU	−617 RLU	32%	29%	16%	−1%	−6%	−14%	−2%	–	–	–	–	–	–	–	–	percentage of gene editing, GFP fluorescence intensity decrease (% of reduction) ([2]; Dodecanal, 15 μM): −17%
Ac-RRHK*RLK*RRLK*RL-NH2 (Ac-RRHK(NHNH2)RLK(NHNH2)RRLK(NHNH2)RL-NH2; not fully specified; printed as Ac-RRHK*RLK*RRLK*RL-NH2; also: K*4,K*7,K*11: native or modified lysine (ε-amide to a linker)) [13(Leu-His)]	–	–	76409 RLU	–	429 RLU	–	10%	55%	–	10%	14%	–	–	116309 RLU	33439 RLU	4972 RLU	20%	17%	54%	50%	mean luminescent intensity (RLuc pDNA) (HCT116 cells; Palmitoleyl, 5 μM): 123206 RLU; siRNA % fluorescence reduction vs siMOCK [1]: 76%; percentage of GFP-silencing relative to siMOCK ([1]; Oleyl, 5 μM): 29%; percentage of GFP-silencing relative to siMOCK ([1]; Petroselinyl, 10 μM): 38%; percentage of GFP-silencing relative to siMOCK ([1]; Petroselinyl, 15 μM): 76%; percentage of gene editing, GFP fluorescence intensity decrease (% of reduction) ([2]; Oleyl, 10 μM): −6%; percentage of gene editing, GFP fluorescence intensity decrease (% of reduction) ([2]; Palmitoleyl, 10 μM): −13%; percentage of gene editing, GFP fluorescence intensity decrease (% of reduction) ([2]; Palmitoleyl, 15 μM): 6%; percentage of gene editing, GFP fluorescence intensity decrease (% of reduction) ([2]; Petroselinyl, 15 μM): 22%
